Data set [1] concerns the target T1, hNK1R (Homo sapiens, UniProt P25103).
T1 construct: expressed in transfected cells; host or cells: CHO-K1 (hNK1-CHO), gift from Dr. Attila Keresztes and Dr. John M. Streicher
In words: Saturation binding assay of 177Lu-radioconjugates on CHO-NK1R cells. The conditions noted are these: for Kd: read-out: Kd ± SD. Here is the method: The saturation binding studies of ^177Lu-radioconjugates were performed using transfected CHO-NK1R cell line, and all radioconjugates were obtained according to the common labelling protocol given above with the same specific activity. In brief, 10^5 cells per well were seeded into 24-well plates and incubated 24 h before the experiment. […] After that time, the assay medium was collected into plastic tubes and cells were washed twice with cold Dulbecco’s PBS. Subsequently, cells were lysed using 1M NaOH and collected into plastic tubes for radioactivity measurement. The radioactivity of collected medium and lysed cells was measured using a Wizard^2 2-Detector Gamma Counter (PerkinElmer, Waltham, MA, USA) with the energy window of 50–500 keV. The study data came from three independent experiments carried out in duplicate, while the results, presented as the Kd and BMAX with SD, were calculated using a total and nonspecific binding (one site) nonlinear regression curve fit (GraphPad Prism version 8.0, GraphPad, San Diego, CA, USA).

A short description of data set [2]: physchem. Format: physicochemical. The protocol:
A lipophilicity study was also performed right after the SPE method purification and ethanol evaporation. For each DOTA radioconjugate, the lipophilicity value was estimated as the logarithm of the distribution coefficient (D) based on the ratio of the radioactivity of the organic phase to the radioactivity of the aqueous phase in the n-octanol/PBS (pH 7.40) system. Simultaneously, the stability of the studied radioconjugate during the experiment was verified through the HPLC analysis of the aqueous phase.
A solution of isolated radioconjugate (approximately 0.5 MBq for ^177Lu-radioconjugates or 5 MBq for ^68Ga-radioconjugates) in 500 µL of 0.1 M PBS buffer (pH 7.40) and 500 µL of n-octanol was vigorously stirred and centrifuged (13,500 rpm for 5 min) to separate the immiscible phases. Then, the radioactivity of samples from both phases were measured using a well-type NaI(Tl) detector. The distribution coefficient, D, was calculated dividing the radioactivity of the radioconjugate in the organic phase to that in the aqueous phase. Each experiment was performed in triplicate and averaged. In parallel, the aqueous phases were analysed by HPLC to confirm the stability of studied radioconjugate during the experiment period. The lipophilicity value of each radioconjugates was expressed as the logarithm of its D value.

The test system of data set [3] is hNK1R Q165A mutant. The conditions noted are these: read-out: IC50 Q165A mutant hNK1R; Gln165Ala mutation; cited from earlier work.
Data set [4] has as its system hNK1R His197Ala mutation. The conditions noted are these: versus wild type; cited from earlier work.
The subject of data set [5] is hNK1R His197Phe mutation. The following applies: versus wild type; cited from earlier work.
Setting [6] is: ratio to [177Lu]Lu-DOTA-[Thi8,Met(O2)11]SP.
Where [7] appears, read: pH 7.4, logD7.4 (Mean ± SD) 177Lu-.
The mark [8] stands for this setting: pH 7.4, logD7.4 (Mean ± SD) 68Ga-.

Several values for one entry are separate records, joined by “and”; a condition that tells them apart may be missing. Equal entries are not always repeated. Where two headings read alike, the source gives them in different places. Square brackets hold non-standard residues; d marks the D form. Peptide text beside a SMILES is read from it. * marks the point of attachment. DOTA = O=C(O)CN1CCN(CC(=O)O)CCN(CC(=O)*)CCN(CC(=O)O)CC1; Met(O2) = CS(=O)(=O)CC[C@H](N)C(=O)O; 2Thi = N[C@@H](Cc1cccs1)C(=O)O

T1 sequence (P25103 whole entry): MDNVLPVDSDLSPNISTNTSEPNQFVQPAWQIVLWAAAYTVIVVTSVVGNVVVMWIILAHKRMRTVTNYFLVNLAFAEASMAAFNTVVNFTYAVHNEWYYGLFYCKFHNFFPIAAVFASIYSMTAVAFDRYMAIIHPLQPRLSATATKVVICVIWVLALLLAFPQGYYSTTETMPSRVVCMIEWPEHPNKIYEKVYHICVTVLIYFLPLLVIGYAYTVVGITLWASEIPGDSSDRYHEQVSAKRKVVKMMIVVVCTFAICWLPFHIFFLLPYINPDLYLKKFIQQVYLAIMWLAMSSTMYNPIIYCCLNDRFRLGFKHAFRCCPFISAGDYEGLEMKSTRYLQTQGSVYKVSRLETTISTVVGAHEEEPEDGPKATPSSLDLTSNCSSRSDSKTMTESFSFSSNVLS

Regarding `CC(C)C[C@H](NC(=O)CNC(=O)[C@H](Cc1cccs1)NC(=O)[C@H](Cc1ccccc1)NC(=O)[C@H](CCC(N)=O)NC(=O)[C@H](CCC(N)=O)NC(=O)[C@@H]1CCCN1C(=O)[C@H](CCCCN)NC(=O)[C@@H]1CCCN1C(=O)[C@H](CCCNC(=N)N)NC(=O)CN1CCN(CC(=O)O)CCN(CC(=O)O)CCN(CC(=O)O)CC1)C(=O)N[C@@H](CCS(C)(=O)=O)C(N)=O` [[^177Lu]Lu-DOTA-[Thi^8,Met(O2)^11]SP, metal not drawn, reference compound] ({DOTA}-RPKPQQF[2Thi]GL[Met(O2)]-NH2; N-terminus and C-terminus assumed), the Kd (commonly the equilibrium constant for the complex coming apart) in data set [1] was determined as 6.15 ± 0.64 nM.

For `O=C(O)CN1CCN(CC(=O)O)CCN(CC(=O)N[C@@H](Cc2c[nH]c3ccccc23)C(=O)OCc2cc(C(F)(F)F)cc(C(F)(F)F)c2)CCN(CC(=O)O)CC1` [[^177Lu]Lu-1d, metal not drawn], in data set [1] (CHO-NK1R cells, 60 min at 37 °C), the “BMAX ± SD” value is 0.762 nM and 0.762 ± 0.046 nM. For the same compound, in data set [1] (CHO-NK1R cells, 60 min at 37 °C, aprepitant as blocker), the Kd is 6.98 ± 0.69 nM. Besides, in data set [1] (setting [6]), the “BMAX Ratio to SP” value was determined as 0.82 and the “Kd Ratio to SP” value came to 1.13. Also, in data set [2] (setting [7]), the logD – broadly, lipophilicity at a set pH, counting ionised and neutral species – turned out to be 0.4 ± 0.004.

`C[C@@H](NC(=O)CN1CCN(CC(=O)O)CCN(CC(=O)O)CCN(CC(=O)O)CC1)C(=O)N[C@@H](Cc1c[nH]c2ccccc12)C(=O)OCc1cc(C(F)(F)F)cc(C(F)(F)F)c1` [[^177Lu]Lu-2d, metal not drawn]: the logD in data set [2] (setting [7]) was found to be 0.704 ± 0.005.

In the case of `C[C@@H](NC(=O)CN1CCN(CC(=O)O)CCN(CC(=O)O)CCN(CC(=O)O)CC1)C(=O)N[C@@H](Cc1c[nH]c2ccccc12)C(=O)OCc1cc(C(F)(F)F)cc(C(F)(F)F)c1` [[^68Ga]Ga-2d, metal not drawn], the logD in data set [2] (setting [8]) was -0.06 ± 0.02.

In data set [2] (setting [7]), `O=C(O)CN1CCN(CC(=O)O)CCN(CC(=O)NCCCCCC(=O)N[C@@H](Cc2c[nH]c3ccccc23)C(=O)OCc2cc(C(F)(F)F)cc(C(F)(F)F)c2)CCN(CC(=O)O)CC1` [[^177Lu]Lu-4d, metal not drawn] returned a logD of 0.866 ± 0.019.

As for `O=C(O)CN1CCN(CC(=O)O)CCN(CC(=O)NCCCCCC(=O)N[C@@H](Cc2c[nH]c3ccccc23)C(=O)OCc2cc(C(F)(F)F)cc(C(F)(F)F)c2)CCN(CC(=O)O)CC1` [[^68Ga]Ga-4d, metal not drawn], in data set [2] (setting [8]), the logD amounted to 0.071 ± 0.023.

Take `C[C@@H](NC(=O)CN1CCN(CC(=O)O)CCN(CC(=O)O)CCN(CC(=O)O)CC1)C(=O)N[C@H](C)C(=O)N[C@@H](Cc1c[nH]c2ccccc12)C(=O)OCc1cc(C(F)(F)F)cc(C(F)(F)F)c1` [[^68Ga]Ga-3d, metal not drawn]: the logD in data set [2] (setting [8]) is -0.259 ± 0.017.

`CC(=O)N[C@@H](Cc1c[nH]c2ccccc12)C(=O)OCc1cc(C(F)(F)F)cc(C(F)(F)F)c1` [Compound 1c, 3,5-bis(trifluoromethyl)benzyl acetyl-L-tryptophanate]: the IC50 – broadly, the concentration that gives 50% inhibition – in data set [3] is 8.1 nM. Besides, in data set [4], the “decrease of affinity with His197Ala mutation” value is “ten-fold”. In data set [5], the “effect of His197Phe mutation on affinity” value is recorded as “no effect”.

These data come from paper PMC8835841, “Novel NK1R-Targeted ^68Ga-/^177Lu-Radioconjugates with Potential Application against Glioblastoma Multiforme: Preliminary Exploration of Structure–Activity Relationships” (International Journal of Molecular Sciences, 2022).
